The source of these data is ChEMBL document CHEMBL6134840 (J Med Chem, 2025).

Data set [1] can be described thus: Permeability across apical to basal side in human Caco-2 cells. The class given is ADME, cell-based. Background: Caco-2 cells form a polarised layer with tight junctions and transporters.
Data set [2] can be described thus: Stability in mouse liver microsome. The data set is classed as ADME. As to conditions: microsomes. (Liver microsomes are vesicles of endoplasmic reticulum, rich in cytochrome P450 enzymes.)

Turning to `O=S(=O)(Nc1ccc2ccccc2n1)c1ccccc1`, the permeability result in data set [1] is listed as “Permeable”. Also, in data set [2], the Stability entry is “Stable”.
